Experiments:
[1] = test system: erythroid progenitor cells; assay: Total cell density over time in cultures of erythroid progenitor cells (FIG. 1); assay type: cell-based; conditions: culture medium including the substance during maturation; compared to methods without it
[2] = test system: erythroid progenitor cells; assay: Enucleated erythroid cell density over time in cultures of erythroid progenitor cells (FIG. 2); assay type: cell-based; conditions: culture medium including the substance during maturation; compared to methods without it
[3] = test system: erythroid cells generated from human CD34+ hematopoietic stem cells; assay: Three-stage erythroid culture; maturation-phase (third) medium supplemented; FACS-based cell counting
Description: The effect of hypotaurine alone or in combination with myo-inositol on erythroid progenitor cell cultures was examined. Human CD34^+ hematopoietic stem cells (HSCs) were cultured in a three-stage process to generate enucleated erythroid cells. In the first stage, the CD34^+ HSCs were expanded in a T-flask in a first culture medium containing IMDM supplemented recombinant human insulin, recombinant human transferrin, recombinant human SCF, recombinant IL-3, recombinant Flt-3 ligand, and recombinant human IL-3. Subsequently, cells were transduced with a lentiviral vector encoding phenylalanine ammonia lyase. After transduction, cells were cultured in a 50 L bioreactor culture vessel containing a second culture medium containing IMDM, supplemented with recombinant human erythropoietin, recombinant human SCF, recombinant human IL3, recombinant human insulin, dexamethasone, and recombinant human transferrin. For the third stage of the process (maturation phase), an aliquot of cells was seeded into 24 well plate containing a third culture medium containing IMDM supplemented with recombinant human EPO, recombinant human SCF, recombinant human insulin, recombinant transferrin, human AB serum, and human plasma.
[…] Of note, the first, second and third culture media included a basal media (i.e., IMDM) including 0.0072 g/L of myo-inositol. Periodic sampling and cell counting was performed during the third stage using a fluorescence-activated cell sorting-based cell counter.

[4] = third culture media supplemented with taurine, compared to control culture conditions (data not shown)

| SMILES | cell proliferation [1] | number of enucleated erythroid cells [2] | rate of enucleation [2] | total cell density of erythroid cells ([3]; 1.0 g/L hypotaurine in third culture medium, 24 well plate, compared to control culture conditions (FIG. 1)) | enucleated erythroid cell density ([3]; 1.0 g/L hypotaurine in third culture medium, 24 well plate, compared to control culture conditions (FIG. 2)) | enucleated erythroid cell density [3, 4] | total cell density of erythroid cells [3, 4] |
| --- | --- | --- | --- | --- | --- | --- | --- |
| NCCS(=O)O [hypotaurine] | increased | increased | increased | significantly increase | significantly increase |  |  |
| NCCS(=O)(=O)O [taurine] | increased | increased | increased |  |  | significant increase | significant increase |
